Data reported in PMC7311426, “An amphipathic peptide with antibiotic activity against multidrug-resistant Gram-negative bacteria” (Nature Communications, 2020).
Converted amounts (≈) assume the structure as drawn. Like-named read-outs stand apart in the source and are kept apart here. Residues, ends and D or L forms follow the SMILES beside them.

How the values were obtained:
Experiment in all cases: microbe, parasite or virus in culture
A. baumannii = A. baumannii Greece CI, XDR; PmxR; MHB; mode of 6 replicates
Outline: (§1)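 Broth microdilution in MHB, 2-fold 12-point series from 128 or 64 down to 0.06 or 0.03 μg mL^−1, 5 × 10^5 CFU mL^−1. Extra runs in CAMHB per CLSI and in MHB with 1% agarose; n ≥ 6.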

E. coli = tested on: E. coli
Outline: as §1

K. pneumoniae = settings: for MIC, broth microdilution: plate 1, colony 1; for MIC K. pneumoniae ATCC BAA-2146: NDM-1 strain, NBS Corning 3641 plate
Outline: as §1

P. aeruginosa = tested on: P. aeruginosa
Outline: as §1

## CC(C)[C@@H]1NC(=O)[C@H](Cc2ccc(O)cc2)NC(=O)[C@H](Cc2c[nH]c3ccccc23)NC(=O)[C@@H](NC(=O)[C@H](Cc2ccccc2)NC(=O)CN)CSSC[C@@H](C(=O)N[C@@H](CC(N)=O)C(=O)O)NC(=O)[C@H](CCCNC(=N)N)NC(=O)[C@H](CCCNC(=N)N)NC(=O)[C@H](Cc2ccc(O)cc2)NC(=O)[C@@H]2CSSC[C@H](NC1=O)C(=O)N[C@@H](C)C(=O)N[C@@H](CCCNC(=N)N)C(=O)N[C@@H](CCCNC(=N)N)C(=O)N[C@@H](CC(N)=O)C(=O)NCC(=O)N[C@@H](C)C(=O)N[C@@H](CCCNC(=N)N)C(=O)N[C@@H](C(C)C)C(=O)N2 [AA139] (HELM PEPTIDE1{G.F.C.W.Y.V.C.A.R.R.N.G.A.R.V.C.Y.R.R.C.N}$PEPTIDE1,PEPTIDE1,3:R3-20:R3|PEPTIDE1,PEPTIDE1,7:R3-16:R3$$$V2.0)
A. baumannii
  BMD MIC: 0.5 µg/mL
E. coli
  MIC against ESBL producing E. coli DSA 443: 0.5 µg/mL (≈ 0.196 µM)
  MIC, broth microdilution: 0.06 µg/mL (≈ 0.0235 µM)
E. coli; E. coli AUD172 spontaneous mutant, AA139 selection 4X, plate 2, colony 2, drug-free passage 1
  MIC, broth microdilution: 0.12 µg/mL (≈ 0.0471 µM)
E. coli; E. coli AUD172 spontaneous mutant, AA139 selection 4X, plate 2, colony 2, drug-free passage 5
  MIC, broth microdilution: 0.25 µg/mL (≈ 0.098 µM)
E. coli; E. coli ESBL20150072, mcr-1 pos, ESBL, CAMHB, AA139
  BMD MIC: 0.5 µg/mL
K. pneumoniae
  BMD MIC: 0.5 µg/mL
K. pneumoniae; BMD, MHB, 18-20 h 37 °C, mode of ≥6 independent biological replicates
  MIC K. pneumoniae BAA-2146 (NDM-1): 1 µg/mL (≈ 0.392 µM)
K. pneumoniae; K. pneumoniae 3010 spontaneous mutant, AA139 selection 4X, drug-free passage 1
  MIC, broth microdilution: 2, 2 µg/mL
K. pneumoniae; K. pneumoniae 3010 spontaneous mutant, AA139 selection 4X, drug-free passage 5
  MIC, broth microdilution: 2, 2 µg/mL
K. pneumoniae; K. pneumoniae 3010 spontaneous mutant, AA139 selection 8X, drug-free passage 1
  MIC, broth microdilution: 2, 2 µg/mL
K. pneumoniae; K. pneumoniae 3010 spontaneous mutant, AA139 selection 8X, drug-free passage 5
  MIC, broth microdilution: 2, 2 µg/mL
K. pneumoniae; K. pneumoniae ATCC 700603 (K6), MDR, OXA-2/SHV-18, CAMHB, mode of 6 replicates
  BMD MIC: 2 µg/mL
K. pneumoniae; K. pneumoniae ATCC 700603 (K6), MDR, OXA-2/SHV-18, MHB, mode of 6 replicates
  BMD MIC: 0.5 µg/mL
K. pneumoniae; K. pneumoniae BAA-2146, MDR, ESBL, NDM-1 pos, MHB, mode of 6 replicates
  BMD MIC: 1 µg/mL
K. pneumoniae; K. pneumoniae Greece CI 8_GR_13, XDR, KPC-2, PmxR, MHB, mode of 6 replicates
  BMD MIC: 16 µg/mL
K. pneumoniae; K. pneumoniae ST258 spontaneous mutant, AA139 selection 4X, drug-free passage 1
  MIC, broth microdilution: 2, 2 µg/mL
K. pneumoniae; K. pneumoniae ST258 spontaneous mutant, AA139 selection 4X, drug-free passage 5
  MIC, broth microdilution: 2, 2 µg/mL
K. pneumoniae; CAMHB, replicate 1
  MIC K. pneumoniae ATCC BAA-2146: 1 µg/mL (≈ 0.392 µM)
K. pneumoniae; CAMHB, replicate 2
  MIC K. pneumoniae ATCC BAA-2146: 1 µg/mL (≈ 0.392 µM)
K. pneumoniae; CAMHB, replicate 3
  MIC K. pneumoniae ATCC BAA-2146: 1 µg/mL (≈ 0.392 µM)
K. pneumoniae; CAMHB, replicate 4
  MIC K. pneumoniae ATCC BAA-2146: 2 µg/mL (≈ 0.784 µM)
K. pneumoniae; CAMHB, replicate 5
  MIC K. pneumoniae ATCC BAA-2146: 1 µg/mL (≈ 0.392 µM)
K. pneumoniae; CAMHB, replicate 6
  MIC K. pneumoniae ATCC BAA-2146: 1 µg/mL (≈ 0.392 µM)
K. pneumoniae; CAMHB, replicate 7
  MIC K. pneumoniae ATCC BAA-2146: 0.5 µg/mL (≈ 0.196 µM)
K. pneumoniae; CAMHB, replicate 8
  MIC K. pneumoniae ATCC BAA-2146: 0.5 µg/mL (≈ 0.196 µM)
K. pneumoniae; CAMHB, replicate 9
  MIC K. pneumoniae ATCC BAA-2146: 0.5 µg/mL (≈ 0.196 µM)
K. pneumoniae; CAMHB, replicate 10
  MIC K. pneumoniae ATCC BAA-2146: 0.25 µg/mL (≈ 0.098 µM)
K. pneumoniae; CAMHB, replicate 11
  MIC K. pneumoniae ATCC BAA-2146: 0.5 µg/mL (≈ 0.196 µM)
K. pneumoniae; CAMHB, replicate 12
  MIC K. pneumoniae ATCC BAA-2146: 0.5 µg/mL (≈ 0.196 µM)
K. pneumoniae; CAMHB, replicate 13
  MIC K. pneumoniae ATCC BAA-2146: 1 µg/mL (≈ 0.392 µM)
K. pneumoniae; CAMHB, replicate 14
  MIC K. pneumoniae ATCC BAA-2146: 1 µg/mL (≈ 0.392 µM)
P. aeruginosa
  MIC against P. aeruginosa (ATCC 27853): 1.0 µg/mL (≈ 0.392 µM)
  MIC, broth microdilution: 1 µg/mL (≈ 0.392 µM)
P. aeruginosa; P. aeruginosa ATCC 27853 spontaneous mutant, AA139 selection 4X, plate 1, colony 1, drug-free passage 1
  MIC, broth microdilution: 1, 1 µg/mL
P. aeruginosa; P. aeruginosa ATCC 27853 spontaneous mutant, AA139 selection 4X, plate 1, colony 1, drug-free passage 5
  MIC, broth microdilution: 1, 1 µg/mL
P. aeruginosa; P. aeruginosa ATCC 27853 spontaneous mutant, AA139 selection 4X, plate 1, colony 2, drug-free passage 1
  MIC, broth microdilution: 1, 1 µg/mL
P. aeruginosa; P. aeruginosa ATCC 27853 spontaneous mutant, AA139 selection 4X, plate 1, colony 2, drug-free passage 5
  MIC, broth microdilution: 1, 1 µg/mL
P. aeruginosa; P. aeruginosa ATCC 27853 spontaneous mutant, AA139 selection 4X, plate 1, colony 3, drug-free passage 1
  MIC, broth microdilution: 1, 1 µg/mL
P. aeruginosa; P. aeruginosa ATCC 27853 spontaneous mutant, AA139 selection 4X, plate 1, colony 3, drug-free passage 5
  MIC, broth microdilution: 1, 1 µg/mL
P. aeruginosa; P. aeruginosa ATCC 27853 spontaneous mutant, AA139 selection 4X, plate 1, colony 4, drug-free passage 1
  MIC, broth microdilution: 2 µg/mL (≈ 0.784 µM)
P. aeruginosa; P. aeruginosa ATCC 27853 spontaneous mutant, AA139 selection 4X, plate 1, colony 4, drug-free passage 5
  MIC, broth microdilution: 1 µg/mL (≈ 0.392 µM)
P. aeruginosa; P. aeruginosa ATCC 27853 spontaneous mutant, AA139 selection 4X, plate 1, colony 5, drug-free passage 1
  MIC, broth microdilution: 2, 2 µg/mL
P. aeruginosa; P. aeruginosa ATCC 27853 spontaneous mutant, AA139 selection 4X, plate 1, colony 5, drug-free passage 5
  MIC, broth microdilution: 2, 2 µg/mL
P. aeruginosa; P. aeruginosa ATCC 27853 spontaneous mutant, AA139 selection 4X, plate 1, colony 6, drug-free passage 1
  MIC, broth microdilution: 1, 1 µg/mL
P. aeruginosa; P. aeruginosa ATCC 27853 spontaneous mutant, AA139 selection 4X, plate 1, colony 6, drug-free passage 5
  MIC, broth microdilution: 1, 1 µg/mL
P. aeruginosa; P. aeruginosa ATCC 27853 spontaneous mutant, AA139 selection 4X, plate 2, colony 1, drug-free passage 1
  MIC, broth microdilution: 1, 1 µg/mL
P. aeruginosa; P. aeruginosa ATCC 27853 spontaneous mutant, AA139 selection 4X, plate 2, colony 1, drug-free passage 5
  MIC, broth microdilution: 1, 1 µg/mL
P. aeruginosa; P. aeruginosa ATCC 27853 spontaneous mutant, AA139 selection 4X, plate 2, colony 2, drug-free passage 1
  MIC, broth microdilution: 1, 1 µg/mL
P. aeruginosa; P. aeruginosa ATCC 27853 spontaneous mutant, AA139 selection 4X, plate 2, colony 2, drug-free passage 5
  MIC, broth microdilution: 1, 1 µg/mL
P. aeruginosa; P. aeruginosa ATCC 27853 spontaneous mutant, AA139 selection 4X, plate 2, colony 3, drug-free passage 1
  MIC, broth microdilution: 1 µg/mL (≈ 0.392 µM)
P. aeruginosa; P. aeruginosa ATCC 27853 spontaneous mutant, AA139 selection 4X, plate 2, colony 3, drug-free passage 5
  MIC, broth microdilution: 0.5 µg/mL (≈ 0.196 µM)
P. aeruginosa; P. aeruginosa ATCC 27853 spontaneous mutant, AA139 selection 4X, plate 2, colony 4, drug-free passage 1
  MIC, broth microdilution: 1 µg/mL (≈ 0.392 µM)
P. aeruginosa; P. aeruginosa ATCC 27853 spontaneous mutant, AA139 selection 4X, plate 2, colony 4, drug-free passage 5
  MIC, broth microdilution: 0.5 µg/mL (≈ 0.196 µM)
